Measured values taken from US11566041B2, “Nucleotide prodrug compounds” (Ligand Pharmaceuticals Incorporated, priority 2020, dated 2023).

Tests used:
[1] = Tissue distribution following oral administration: blood metabolite nucleoside and liver nucleoside triphosphate levels; parameters: species or system rats; conditions: rat, in vivo, 5 mg/kg; for Blood Nuc level at 1 hour / Liver NTP level at 1 hour / Blood Nuc level at 5 hours / Liver NTP level at 5 hours: po
Procedure: IV Remdesivir (2 mg/kg), oral Remdesevir (5 mg/kg) and oral test compound (5 mg/kg) were administered to rats. Oral administration was to fasted rats by oral gavage. Plasma concentrations of the metabolite nucleoside in circulation were determined by HPLC-UV, and the liver concentrations of the active triphosphate were measured by LC-MS using standard chromatography methods.
FIG. 4 is a graph showing the ratio of (concentration of corresponding nucleoside in the liver)/(concentration of corresponding nucleoside in the blood) after 1 and 5 hours from the second study.
Table 1 contains the blood and liver levels after 1 and 5 hours for a number of test compounds compared to oral Remdesivir.

[2] = Tissue distribution following inhalation administration: blood and lung metabolite nucleoside and lung triphosphate levels; format: in vivo, rats
Procedure: Remdesivir or the indicated test compound was administered at 2 mg/kg to rats by an inhalation route. The lung concentrations of the metabolite nucleoside and its triphosphate were measured by LC-MS using standard chromatography methods.

| Structure (SMILES) | Blood Nuc level at 1 hour [1] | Liver NTP level at 1 hour [1] [x] | Blood Nuc level at 5 hours [1] [x] | Liver NTP level at 5 hours [1] [x] | Liver exposure of nucleoside triphosphate relative to IV or oral Remdesivir [1] | Lung levels of the metabolite nucleoside, exposure relative to Remdesivir ([2]; rat, in vivo, 2 mg/kg) | Nucleoside triphosphate levels in the lung ([2]; rat, in vivo, 2 mg/kg) | Nucleoside triphosphate levels in the lung ([2]; rats, 2 mg/kg inhalation route, FIG. 7) |
| --- | --- | --- | --- | --- | --- | --- | --- | --- |
| CCOC(=O)c1ccccc1COP1(=O)OC[C@H]2O[C@@](C#N)(c3ccc4c(N)ncnn34)[C@H](O)[C@@H]2O1 (stereo partly drawn) [Compound 101, Ethyl 2-((((4aR,6R,7R,7aS)-6-(4-aminopyrrolo[2,1-f][1,2,4]triazin-7-yl)-6-cyano-7-hydroxy-2-oxidotetrahydro-4H-furo[3,2-d][1,3,2]dioxaphosphinin-2-yl)oxy)methyl)benzoate] | <1x | ≥2 | <1 | ≥2 |  |  |  |  |
| CCOC(=O)c1ccccc1COP1(=O)OC[C@H]2O[C@@](C#N)(c3ccc4c(N)ncnn34)[C@H](OC(C)=O)[C@@H]2O1 (stereo partly drawn) [Compound 105, Ethyl 2-((((4aR,6R,7R,7aR)-7-acetoxy-6-(4-aminopyrrolo[2,1-f][1,2,4]triazin-7-yl)-6-cyano-2-oxidotetrahydro-4H-furo[3,2-d][1,3,2]dioxaphosphinin-2-yl)oxy)methyl)benzoate] | ≥2x* | ≥2 | ≥2 | ≥2 | significantly greater liver exposure than either IV or oral Remdesivir | more than 4 times | significant lung exposure of the triphosphate |  |
| CCOC(=O)c1ccccc1COP1(=O)OC[C@H]2O[C@@](C#N)(c3ccc4c(N)ncnn34)[C@H](OC(=O)CC)[C@@H]2O1 (stereo partly drawn) [Compound 106, Ethyl 2-((((4aR,6R,7R,7aR)-6-(4-aminopyrrolo[2,1-f][1,2,4]triazin-7-yl)-6-cyano-2-oxido-7-(propionyloxy)tetrahydro-4H-furo[3,2-d][1,3,2]dioxaphosphinin-2-yl)oxy)methyl)benzoate] | ≥2x | ≥2 | ≥2 | ≥2 |  |  |  |  |
| CCC(CC)COC(=O)[C@H](C)N[P@](=O)(OC[C@H]1O[C@@](C#N)(c2ccc3c(N)ncnn23)[C@H](O)[C@@H]1O)Oc1ccccc1 [Remdesivir, reference compound] |  |  |  |  |  |  |  | below the level of quantitation |
